Test results from patent publication US9062078B2, “Substituted 7-azabicyles and their use as orexin receptor modulators” (priority 2013, dated 2015).
Read-outs that look alike come from different tables or passages of the source.

Tests used:
[1] = biological target: human orexin 1 receptor (Homo sapiens (Human), UniProt O43613); assay: Human orexin 1 receptor radioligand binding (competitive, [3H]-SB674042, CHO cell preparations)
[2] = biological target: human orexin 2 receptor (Homo sapiens (Human), UniProt O43614); assay: Human orexin 2 receptor radioligand binding (competitive, [3H]-EMPA, HEK293 cell preparations)
[3] = human orexin 2 receptor, [3H]-EMPA competition binding, read-out: hOX2 Ki (nm)
[4] = human orexin 1 receptor, [3H]-SB674042 competition binding, read-out: hOX1 Ki (nm)

Sequence of human orexin 1 receptor (O43613 whole entry): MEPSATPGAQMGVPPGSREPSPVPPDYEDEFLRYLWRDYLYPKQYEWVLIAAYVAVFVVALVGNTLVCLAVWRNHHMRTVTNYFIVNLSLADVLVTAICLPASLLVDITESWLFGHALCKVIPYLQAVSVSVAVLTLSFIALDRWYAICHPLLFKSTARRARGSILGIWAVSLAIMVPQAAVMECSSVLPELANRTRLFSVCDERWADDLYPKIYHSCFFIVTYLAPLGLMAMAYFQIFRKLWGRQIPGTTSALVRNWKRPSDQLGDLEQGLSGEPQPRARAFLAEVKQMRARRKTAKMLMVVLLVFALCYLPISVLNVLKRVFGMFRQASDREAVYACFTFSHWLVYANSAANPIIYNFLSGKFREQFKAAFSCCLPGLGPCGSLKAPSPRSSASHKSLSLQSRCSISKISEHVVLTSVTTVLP
Sequence of human orexin 2 receptor (O43614 whole entry): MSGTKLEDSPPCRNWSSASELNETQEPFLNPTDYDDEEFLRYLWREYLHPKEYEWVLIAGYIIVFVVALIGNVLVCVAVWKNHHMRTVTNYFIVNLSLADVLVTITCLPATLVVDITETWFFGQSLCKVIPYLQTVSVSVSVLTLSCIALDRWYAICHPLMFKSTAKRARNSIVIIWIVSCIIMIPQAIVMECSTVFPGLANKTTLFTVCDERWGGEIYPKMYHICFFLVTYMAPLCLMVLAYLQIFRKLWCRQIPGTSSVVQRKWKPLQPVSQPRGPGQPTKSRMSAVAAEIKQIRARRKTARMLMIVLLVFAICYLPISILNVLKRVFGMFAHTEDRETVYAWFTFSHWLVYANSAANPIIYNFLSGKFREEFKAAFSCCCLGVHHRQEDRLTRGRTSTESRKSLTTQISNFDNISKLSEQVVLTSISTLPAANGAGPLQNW

Row | SMILES | Ki ([1]; hOX1 Ki (nm)) | Ki ([2]; hOX2 Ki (nm)) | Ki [2, 3] | Ki [1, 4]
1 | O=C(c1ccccc1-c1cccs1)N1C2CCC1C(COc1ccc(F)cn1)C2 (racemic) [Example 11, (±)-(2-(((5-fluoropyridin-2-yl)oxy)methyl)-7-azabicyclo[2.2.1]heptan-7-yl)(2-(thiophen-2-yl)phenyl)methanone] | 10 nM | 12 nM |  | 
2 | Cc1ccc(-n2nccn2)c(C(=O)N2C3CCC2C(COc2nccc(C(F)(F)F)n2)C3)c1 (racemic) [Example 13, (±)-(5-methyl-2-(2H-1,2,3-triazol-2-yl)phenyl)(2-(((4-(trifluoromethyl)pyrimidin-2-yl)oxy)methyl)-7-azabicyclo[2.2.1]heptan-7-yl)methanone] | 118 nM |  | 109 nM | 
3 | Cc1ccc(-n2nccn2)c(C(=O)N2C3CCC2C(COc2ccc(C(F)(F)F)cn2)C3)c1 (racemic) [Example 14, (±)-(5-methyl-2-(2H-1,2,3-triazol-2-yl)phenyl)(2-(((5-(trifluoromethyl)pyridin-2-yl)oxy)methyl)-7-azabicyclo[2.2.1]heptan-7-yl)methanone] | 50 nM |  | 71 nM | 
4 | Cc1ccc(-n2nccn2)c(C(=O)N2C3CCC2C(COc2ncccc2C(F)(F)F)C3)c1 (racemic) [Example 15, (±)-(5-methyl-2-(2H-1,2,3-triazol-2-yl)phenyl)(2-(((3-(trifluoromethyl)pyridin-2-yl)oxy)methyl)-7-azabicyclo[2.2.1]heptan-7-yl)methanone] | 56 nM |  | 120 nM | 
5 | Cc1ccc(-n2nccn2)c(C(=O)N2C3CCC2C(COc2cccc(C(F)(F)F)n2)C3)c1 (racemic) [Example 16, (±)-(5-methyl-2-(2H-1,2,3-triazol-2-yl)phenyl)(2-(((6-(trifluoromethyl)pyridin-2-yl)oxy)methyl)-7-azabicyclo[2.2.1]heptan-7-yl)methanone] |  |  | 42 nM | 20 nM
6 | Cc1ccnc(OCC2CC3CCC2N3C(=O)c2cc(C)ccc2-n2nccn2)c1 (racemic) [Example 17, (±)-(5-methyl-2-(2H-1,2,3-triazol-2-yl)phenyl)(2-(((4-methylpyridin-2-yl)oxy)methyl)-7-azabicyclo[2.2.1]heptan-7-yl)methanone] |  |  | 69 nM | 41 nM
7 | Cc1ccc(-n2nccn2)c(C(=O)N2C3CCC2C(COc2cccc(C)n2)C3)c1 (racemic) [Example 18, (±)-(5-methyl-2-(2H-1,2,3-triazol-2-yl)phenyl)(2-(((6-methylpyridin-2-yl)oxy)methyl)-7-azabicyclo[2.2.1]heptan-7-yl)methanone] |  |  | 44 nM | 12 nM
8 | Cc1ccc(OCC2CC3CCC2N3C(=O)c2cc(C)ccc2-n2nccn2)nc1 (racemic) [Example 19, (±)-(5-methyl-2-(2H-1,2,3-triazol-2-yl)phenyl)(2-(((5-methylpyridin-2-yl)oxy)methyl)-7-azabicyclo[2.2.1]heptan-7-yl)methanone] |  |  | 44 nM | 12 nM
9 | Cc1ccc(-n2nccn2)c(C(=O)N2C3CCC2C(COc2nc(C)cnc2C)C3)c1 (racemic) [Example 20, (±)-(2-(((3,6-dimethylpyrazin-2-yl)oxy)methyl)-7-azabicyclo[2.2.1]heptan-7-yl)(5-methyl-2-(2H-1,2,3-triazol-2-yl)phenyl)methanone] |  |  | 364 nM | 270 nM
10 | Cc1ccc(-n2nccn2)c(C(=O)N2C3CCC2C(COc2nc4ccccc4nc2C(F)(F)F)C3)c1 (racemic) [Example 21, (±)-(5-methyl-2-(2H-1,2,3-triazol-2-yl)phenyl)(2-(((3-(trifluoromethyl)quinoxalin-2-yl)oxy)methyl)-7-azabicyclo[2.2.1]heptan-7-yl)methanone] | 300 nM |  | 487 nM | 
11 | O=C(c1ccccc1-n1nccn1)N1C2CCC1C(COc1ccc(F)cn1)C2 (racemic) [Example 22, (±)-(2-(2H-1,2,3-triazol-2-yl)phenyl)(2-(((5-fluoropyridin-2-yl)oxy)methyl)-7-azabicyclo[2.2.1]heptan-7-yl)methanone] |  |  | 50 nM | 47 nM
12 | O=C(c1cccc2cccnc12)N1C2CCC1C(COc1ccc(F)cn1)C2 (racemic) [Example 23, (±)-2-(((5-fluoropyridin-2-yl)oxy)methyl)-7-azabicyclo[2.2.1]heptan-7-yl)(quinolin-8-yl)methanone] |  |  | 1500 nM | 322 nM
13 | O=C(c1cccc2ccccc12)N1C2CCC1C(COc1ccc(F)cn1)C2 (racemic) [Example 24, (±)-2-(((5-fluoropyridin-2-yl)oxy)methyl)-7-azabicyclo[2.2.1]heptan-7-yl)(naphthalen-1-yl)methanone] |  |  | 164 nM | 122 nM
14 | Cc1ccc2ccccc2c1C(=O)N1C2CCC1C(COc1ccc(F)cn1)C2 (racemic) [Example 25, (±)-2-(((5-fluoropyridin-2-yl)oxy)methyl)-7-azabicyclo[2.2.1]heptan-7-yl)(2-methylnaphthalen-1-yl)methanone] | 74 nM | 160 nM |  | 
15 | O=C(c1ccccc1-n1cccn1)N1C2CCC1C(COc1ccc(F)cn1)C2 (racemic) [Example 26, (±)-2-(1H-pyrazol-1-yl)phenyl)(2-(((5-fluoropyridin-2-yl)oxy)methyl)-7-azabicyclo[2.2.1]heptan-7-yl)methanone] |  |  | 394 nM | 117 nM
16 | O=C(c1occc1-c1ccccc1)N1C2CCC1C(COc1ccc(F)cn1)C2 (racemic) [Example 27, (±)-2-(((5-fluoropyridin-2-yl)oxy)methyl)-7-azabicyclo[2.2.1]heptan-7-yl)(3-phenylfuran-2-yl)methanone] |  | 380 nM |  | 677 nM
17 | CCOc1ccc2ccccc2c1C(=O)N1C2CCC1C(COc1ccc(F)cn1)C2 (racemic) [Example 28, (±)-(2-ethoxynaphthalen-1-yl)(2-(((5-fluoropyridin-2-yl)oxy)methyl)-7-azabicyclo[2.2.1]heptan-7-yl)methanone] |  |  | 11 nM | 14 nM
18 | Cc1nc(C(=O)N2C3CCC2C(COc2ccc(F)cn2)C3)c(-c2ccccc2F)s1 (racemic) [Example 29, (±)-(5-(2-fluorophenyl)-2-methylthiazol-4-yl)(2-(((5-fluoropyridin-2-yl)oxy)methyl)-7-azabicyclo[2.2.1]heptan-7-yl)methanone] |  |  | 60 nM | 11 nM
19 | O=C(c1cc(F)ccc1-n1nccn1)N1C2CCC1C(COc1ccc(F)cn1)C2 (racemic) [Example 30, (±)-(5-fluoro-2-(2H-1,2,3-triazol-2-yl)phenyl)(2-(((5-fluoropyridin-2-yl)oxy)methyl)-7-azabicyclo[2.2.1]heptan-7-yl)methanone] |  |  | 149 nM | 47 nM
20 | O=C(c1c(F)cccc1-c1ncccn1)N1C2CCC1C(COc1ccc(F)cn1)C2 (racemic) [Example 31, (±)-(2-fluoro-6-(pyrimidin-2-yl)phenyl)(2-(((5-fluoropyridin-2-yl)oxy)methyl)-7-azabicyclo[2.2.1]heptan-7-yl)methanone] |  |  | 122 nM | 33 nM
21 | O=C(c1cc(F)ccc1-c1ncccn1)N1C2CCC1C(COc1ccc(F)cn1)C2 (racemic) [Example 32, (±)-(5-fluoro-2-(pyrimidin-2-yl)phenyl)(2-(((5-fluoropyridin-2-yl)oxy)methyl)-7-azabicyclo[2.2.1]heptan-7-yl)methanone] | 21 nM |  | 123 nM | 
22 | O=C(c1ccccc1-n1nccn1)N1C2CCC1C(COc1cnc3ccccc3n1)C2 (racemic) [Example 34, (±)-(2-(2H-1,2,3-triazol-2-yl)phenyl)(2-((quinoxalin-2-yloxy)methyl)-7-azabicyclo[2.2.1]heptan-7-yl)methanone] |  |  | 467 nM | 60 nM
23 | Cc1ccc(-n2nccn2)c(C(=O)N2C3CCC2C(COc2cnc4ccccc4n2)C3)c1 (racemic) [Example 36, (±)-(5-methyl-2-(2H-1,2,3-triazol-2-yl)phenyl)(2-((quinoxalin-2-yloxy)methyl)-7-azabicyclo[2.2.1]heptan-7-yl)methanone] |  |  | 107 nM | 70 nM
24 | O=C(c1cc(F)ccc1-n1nccn1)N1C2CCC1C(COc1cnc3ccccc3n1)C2 (racemic) [Example 37, (±)-(5-fluoro-2-(2H-1,2,3-triazol-2-yl)phenyl)(2-((quinoxalin-2-yloxy)methyl)-7-azabicyclo[2.2.1]heptan-7-yl)methanone] |  |  | 487 nM | 300 nM
25 | Cc1ccc(-c2ncccn2)c(C(=O)N2C3CCC2C(COc2cnc4ccccc4n2)C3)c1 (racemic) [Example 38, (±)-(5-methyl-2-(pyrimidin-2-yl)phenyl)(2-((quinoxalin-2-yloxy)methyl)-7-azabicyclo[2.2.1]heptan-7-yl)methanone] | 120 nM |  | 383 nM | 
26 | Cc1ccc(-n2nccn2)c(C(=O)N2C3CCC2C(COc2nc(C)cc(C)n2)C3)c1 (racemic) [Example 39, (±)-(2-(((4,6-dimethylpyrimidin-2-yl)oxy)methyl)-7-azabicyclo[2.2.1]heptan-7-yl)(5-methyl-2-(2H-1,2,3-triazol-2-yl)phenyl)methanone] | 29 nM |  | 27 nM | 
27 | Cc1cc(C)nc(OCC2CC3CCC2N3C(=O)c2c(C)noc2-c2ccccc2)n1 (racemic) [Example 40, (±)-2-(((4,6-dimethylpyrimidin-2-yl)oxy)methyl)-7-azabicyclo[2.2.1]heptan-7-yl)(3-methyl-5-phenylisoxazol-4-yl)methanone] |  |  | 1200 nM | 5000 nM
28 | O=C(c1cc(F)ccc1-n1nccn1)N1C2CCC1C(CNc1cccc(C(F)(F)F)n1)C2 (racemic) [Example 172, (±)-(5-fluoro-2-(2H-1,2,3-triazol-2-yl)phenyl)(2-(((6-(trifluoromethyl)pyridin-2-yl)amino)methyl)-7-azabicyclo[2.2.1]heptan-7-yl)methanone] |  |  |  | 686 nM
29 | O=C(c1ccccc1-n1nccn1)N1C2CCC1C(Nc1ncc(C(F)(F)F)cn1)C2 (racemic) [Example 221, (±)-(2-(2H-1,2,3-triazol-2-yl)phenyl)(2-(5-(trifluoromethyl)pyrimidin-2-yl)amino)-7-azabicyclo[2.2.1]heptan-7-yl)methanone] |  |  |  | 200 nM
